In patent US20060281763A1, “Carboxamide inhibitors of TGFbeta” (priority 2005, published 2006):

Target: T1, TGFβ R1 (Homo sapiens, UniProt P36897)
T1 sequence (P36897 34-503): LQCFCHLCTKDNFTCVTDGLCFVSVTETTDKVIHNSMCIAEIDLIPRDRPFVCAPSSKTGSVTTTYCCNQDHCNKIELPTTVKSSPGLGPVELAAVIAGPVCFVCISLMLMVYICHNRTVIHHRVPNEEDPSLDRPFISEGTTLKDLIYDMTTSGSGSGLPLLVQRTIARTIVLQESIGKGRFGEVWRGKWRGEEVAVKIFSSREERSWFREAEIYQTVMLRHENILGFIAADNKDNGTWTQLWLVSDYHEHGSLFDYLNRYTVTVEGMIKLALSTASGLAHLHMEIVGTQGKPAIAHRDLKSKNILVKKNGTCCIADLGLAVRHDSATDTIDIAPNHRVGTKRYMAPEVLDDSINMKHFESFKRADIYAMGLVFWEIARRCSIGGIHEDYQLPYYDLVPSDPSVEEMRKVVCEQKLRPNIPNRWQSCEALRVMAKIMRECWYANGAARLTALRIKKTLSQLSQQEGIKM
Assay: TGFβ R1 autophosphorylation protocol (33P-ATP, phosphocellulose filter plate)
Format: biochemical
Conditions: 10 uM ATP, 170 nM TGFβ R1, 20 minutes at room temperature, read-out: IC50 for Kinase Inhibition
Procedure: The compounds of the invention were tested for their ability to inhibit TGFβ by a TGFβ R^1 autophosphorylation protocol. This was conducted as follows: Compound dilutions and reagents were prepared fresh daily. Compounds were diluted from DMSO stock solutions to 2 times the desired assay concentration, keeping final DMSO concentration in the assay less than or equal to 1%. TGFβ R1 was diluted to 4 times the desired assay concentration in buffer+DTT. ATP was diluted into 4× reaction buffer, and gamma-^33P-ATP was added at 60 uCi/mL.
The assay was performed by adding 10 ul of the enzyme to 20 ul of the compound solution. The reaction was initiated by the addition of 10 ul of ATP mix. Final assay conditions included 10 uM ATP, 170 nM TGFβ R1, and […] in 20 mM MOPS, pH7. The reactions were incubated at room temperature for 20 minutes. The reactions were stopped by transferring 23 ul of reaction mixture onto a phosphocellulose 96-well filter plate, which had been pre-wetted with 15 ul of 0.25M H3PO4 per well. After 5 minutes, the wells were washed 4× with 75 mM H3PO4 and once with 95% ethanol. The plate was dried, scintillation cocktail was added to each well, and the wells were counted in a Packard TopCount microplate scintillation counter.

| Compound | IC50 [nM] |
| --- | --- |
| COc1cnc(-c2cc(Cl)ccc2F)nc1Nc1ccncc1C(=O)NC1CC1CO (centres unmarked) [Compound 141, 4-[2-(5-Chloro-2-fluoro-phenyl)-5-methoxy-pyrimidin-4-ylamino]-N-(2-hydroxymethyl-cyclopropyl)-nicotinamide] | 38 |
| COc1cnc(-c2cc(Cl)ccc2F)nc1Nc1ccncc1C(=O)NCCNCCOC1O[C@H](CO)[C@H](O)[C@H](O)[C@H]1O (some centres unmarked) [Compound 158] | 5 |
| COC[C@H]1OC(CCNCCCNC(=O)c2cnccc2Nc2nc(-c3cc(Cl)ccc3F)ncc2OC)[C@H](OC)[C@@H](OC)[C@H]1OC (some centres unmarked) [Compound 126] | 50 |
| COc1cnc(-c2cc(Cl)ccc2F)nc1Nc1ccncc1C(=O)NCCCNCCC1O[C@H](COCc2ccccc2)[C@@H](OCc2ccccc2)[C@H](OCc2ccccc2)[C@H]1OCc1ccccc1 (some centres unmarked) [Compound 99, 4-[2-(5-Chloro-2-fluoro-phenyl)-5-methoxy-pyrimidin-4-ylamino]-N-{3-[2-(3,4,5-tris-benzyloxy-6-benzyloxymethyl-tetrahydro-pyran-2-yl)-ethylamino]-propyl}-nicotinamide] | 610 |
| COc1cnc(-c2cc(Cl)ccc2F)nc1Nc1ccncc1C(=O)NCCCNC(=O)NC(C)C [Compound 66, 4-[2-(5-Chloro-2-fluoro-phenyl)-5-methoxy-pyrimidin-4-ylamino]-N-[3-(3-isopropyl-ureido)-propyl]-nicotinamide] | 270 |
| CCNC(=O)NCCNC(=O)c1cnccc1Nc1nc(-c2cc(Cl)ccc2F)ncc1OC [Compound 69, 4-[2-(5-Chloro-2-fluoro-phenyl)-5-methoxy-pyrimidin-4-ylamino]-N-[2-(3-ethyl-ureido)-ethyl]-nicotinamide] | 150 |
| COc1cnc(-c2cc(Cl)ccc2F)nc1Nc1ccncc1C(=O)NCCNC(=O)COC1O[C@H](CO)[C@H](O)[C@H](O)[C@H]1O (some centres unmarked) [Compound 159, 4-[2-(5-Chloro-2-fluoro-phenyl)-5-methoxy-pyrimidin-4-ylamino]-N-{2-[2-(3,4,5-trihydroxy-6-hydroxymethyl-tetrahydro-pyran-2-yloxy)-acetylamino]-ethyl}-nicotinamide] | 58 |
| COc1cnc(-c2cc(Cl)ccc2F)nc1Nc1ccncc1C(=O)NCCCN1CCCCC1C (centres unmarked) [Compound 12, 4-[2-(5-Chloro-2-fluoro-phenyl)-5-methoxy-pyrimidin-4-ylamino]-N-[3-(2-methyl-piperidin-1-yl)-propyl]-nicotinamide] | 60 |
| COc1cnc(-c2cc(Cl)ccc2F)nc1Nc1ccncc1C(=O)NCCNC(=O)COC1O[C@H](CO)[C@@H](O)[C@H](O)[C@H]1O (some centres unmarked) [Compound 145, 4-[2-(5-Chloro-2-fluoro-phenyl)-5-methoxy-pyrimidin-4-ylamino]-N-{2-[2-(3,4,5-trihydroxy-6-hydroxymethyl-tetrahydro-pyran-2-yloxy)-acetylamino]-ethyl)-nicotinamide] | 53 |
| COc1cnc(-c2cc(Cl)ccc2F)nc1Nc1ccncc1C(=O)NCCC#N [Compound 72, 4-[2-(5-Chloro-2-fluoro-phenyl)-5-methoxy-pyrimidin-4-ylamino]-N-(2-cyano-ethyl)-nicotinamide] | 100 |
| COc1cnc(-c2cc(Cl)ccc2F)nc1Nc1ccncc1C(=O)N1CCNCC1 [Compound 117, {4-[2-(5-Chloro-2-fluoro-phenyl)-5-methoxy-pyrimidin-4-ylamino]-pyridin-3-yl}-piperazin-1-yl-methanone] | 6780 |
| COc1cnc(-c2cc(Cl)ccc2F)nc1Nc1ccncc1C(=O)NCCn1cccc1 [Compound 57, 4-[2-(5-Chloro-2-fluoro-phenyl)-5-methoxy-pyrimidin-4-ylamino]-N-(2-pyrrol-1-yl-ethyl)-nicotinamide] | 70 |
| O=C(NC1CC1)c1cnccc1Nc1nc(-c2cc(Cl)ccc2F)ncc1N1CCCC1 [Compound 21, 4-[2-(5-Chloro-2-fluoro-phenyl)-5-pyrrolidin-1-yl-pyrimidin-4-ylamino]-N-cyclopropyl-nicotinamide] | 180 |
| COc1cnc(-c2cc(Cl)ccc2F)nc1Nc1ccncc1C(=O)NC1CCN(C(=O)OC(C)(C)C)CC1 [Compound 8, 4-({4-[2-(5-Chloro-2-fluoro-phenyl)-5-methoxy-pyrimidin-4-ylamino]-pyridine-3-carbonyl}-amino)-piperidine-1-carboxylic acid tert-butyl ester] | 60 |
| COc1cnc(-c2cc(Cl)ccc2F)nc1Nc1ccncc1C(=O)NCCNC(=O)COC1O[C@H](COC(C)=O)[C@@H](OC(C)=O)[C@H](OC(C)=O)[C@H]1OC(C)=O (some centres unmarked) [Compound 143, Acetic acid 3,4,5-triacetoxy-6-{[2-({4-[2-(5-chloro-2-fluoro-phenyl)-5-methoxy-pyrimidin-4-ylamino]-pyridine-3-carbonyl}-amino)-ethylcarbamoyl]-methoxy}-tetrahydro-pyran-2-ylmethyl ester] | 183 |
| COc1cnc(-c2cc(Cl)ccc2F)nc1Nc1ccncc1C(=O)NCCCN1CCN(C)CC1 [Compound 38, 4-[2-(5-Chloro-2-fluoro-phenyl)-5-methoxy-pyrimidin-4-ylamino]-N-[3-(4-methyl-piperazin-1-yl)-propyl]-nicotinamide] | 540 |
| COc1cnc(-c2cc(Cl)ccc2F)nc1Nc1ccncc1C(=O)NCCNCCOC1O[C@H](COC(C)=O)[C@H](OC(C)=O)[C@H](OC(C)=O)[C@H]1OC(C)=O (some centres unmarked) [Compound 157, Acetic acid 3,4,5-triacetoxy-6-{2-[2-[{4-[2-(5-chloro-2-fluoro-phenyl)-5-methoxy-pyrimidin-4-ylamino]-pyridine-3-carbonyl}amino)-ethylamino]-ethoxy}-tetrahydro-pyran-2-ylmethyl-ester] | 25 |

Same assay, conditions: 10 uM ATP, 170 nM TGFβ R1, room temperature 20 minutes, read-out: IC50 for Kinase Inhibition

| Compound | IC50 [nM] |
| --- | --- |
| CC(C)c1cnc(-c2cc(Cl)ccc2F)nc1Nc1ccncc1C(=O)N1CCN[C@@H](C(C)C)C1 [Compound 231, {4-[2-(5-Chloro-2-fluoro-phenyl)-5-isopropyl-pyrimidin-4-ylamino]-pyridin-3-yl}-(3-isopropyl-piperazin-1-yl)-methanone] | 1090 |
| CC(C)c1cnc(-c2cc(Cl)ccc2F)nc1Nc1ccncc1C(=O)NCCCO [Compound 188, 4-[2-(5-Chloro-2-fluoro-phenyl)-5-isopropyl-pyrimidin-4-ylamino]-N-(3-hydroxy-propyl)-nicotinamide] | 5 |
| CC(C)c1cnc(-c2cc(Cl)ccc2F)nc1Nc1ccncc1C(=O)NCCCN1CCCC1 [Compound 161, 4-[2-(5-Chloro-2-fluoro-phenyl)-5-isopropyl-pyrimidin-4-ylamino]-N-(3-pyrrolidin-1-yl-propyl)-nicotinamide] | 4 |
| CCOP(=O)(OCC)O[C@@H](C)CNC(=O)c1cnccc1Nc1nc(-c2cc(Cl)ccc2F)ncc1C(C)C [Compound 233, Phosphoric acid 2-{(4-[2-(5-chloro-2-fluoro-phenyl)-5-isopropyl-pyrimidin-4-ylamino]-pyridine-3-carbonyl}-amino)-1-methyl-ethyl ester diethyl ester] | 280 |
| COc1cnc(-c2cc(Cl)ccc2F)nc1Nc1ccncc1C(=O)NCCCNS(C)(=O)=O [Compound 237, 4-[2-(5-Chloro-2-fluoro-phenyl)-5-methoxy-pyrimidin-4-ylamino]-N-(3-methanesulfonylamino-propyl)-nicotinamide] | 63 |
| COc1cnc(-c2cc(Cl)ccc2F)nc1Nc1ccncc1C(=O)N1CCC[C@@H](O)C1 [Compound 218, {4-[2-(5-Chloro-2-fluoro-phenyl)-5-methoxy-pyrimidin-4-ylamino]-pyridin-3-yl}-(3-hydroxy-piperidin-1-yl)-methanone] | 1780 |
